Earlier results as cited in US20090062246A1, “THERAPEUTIC TREATMENT-014” (ASTRAZENECA AB, priority 2007, published 2009).

Target: T1, ETB receptor (Homo sapiens, UniProt P24530)
T1 sequence (P24530 27-442): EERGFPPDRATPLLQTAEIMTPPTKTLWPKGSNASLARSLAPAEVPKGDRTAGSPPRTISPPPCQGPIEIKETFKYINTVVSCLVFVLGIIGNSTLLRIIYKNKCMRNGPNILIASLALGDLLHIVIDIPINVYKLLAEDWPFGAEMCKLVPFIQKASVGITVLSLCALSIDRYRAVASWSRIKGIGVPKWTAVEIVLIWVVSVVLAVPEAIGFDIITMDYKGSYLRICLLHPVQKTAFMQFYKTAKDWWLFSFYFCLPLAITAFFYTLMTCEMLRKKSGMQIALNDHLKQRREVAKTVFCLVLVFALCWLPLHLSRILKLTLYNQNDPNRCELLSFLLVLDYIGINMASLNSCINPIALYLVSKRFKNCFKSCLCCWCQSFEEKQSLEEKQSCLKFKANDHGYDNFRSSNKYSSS
Conditions: described in WO04/018044

Compound: COc1nc(C)cnc1NS(=O)(=O)c1cccnc1-c1ccc(-c2nnco2)cc1 [Compound (I), N-(3-methoxy-5-methylpyrazin-2-yl)-2-(4-[1,3,4-oxadiazol-2-yl]phenyl)pyridine-3-sulphonamide]
- affinity for the ETB receptor: no measurable affinity
